Like-named read-outs stand apart in the source and are kept apart here.
Legend:
CK2α = CK2α (Homo sapiens, UniProt P68400); experiment: ADP-Glo kinase assay, CK2 inhibition; assay type: biochemical; settings: for inhibition at 256 µM: 256 μM compound; for inhibition at 1024 µM: 1024 μM compound, read-out: inhibition rate at 1024 μM
Protocol: In vitro CK2 kinase inhibition assay were carried out for the six compounds using ADP-Glo^TM kinase assay. […] As indicated in Table 1 and Figure 5a, these compounds presented the inhibitory effect on CK2α activity to different extent. At the concentration of 16 μM, compound 3 inhibited nearly 50% of CK2α activity. However, at the same concentration, other compounds had only 20% inhibitory activity. Furthermore, except compound 2 and 6, the inhibition rates of these compounds were about 70% and 30% at 256 μM, respectively, with the dose-dependent manner. The ADP-Glo^TM Kinase Assay (Promega, Madison, WI, USA) was used to test the CK2 inhibition effects of these compounds [30, 31]. As indicated by the relevant studies, competitive and noncompetitive inhibitors show the increased and similar IC50 values with increasing concentrations of ATP, respectively. Therefore, we were able to distinguish between ATP competitive and noncompetitive inhibitors of CK2 by exploring whether the IC50 value of inhibitors will change or not at 10 and 100 μM ATP. The kinase reaction was performed in 25 μL mixture containing 10 ng casein kinase 2α, 0.1 µg/μL casein protein, 10 µM or 100 µM ATP, 1× reaction buffer and serially diluted fragments (or DMSO for control). After 60 min incubation at room temperature, 25 μL of ADP-Glo^TM Reagent was added to terminate the kinase reaction and deplete the remaining ATP. Then 50 μL Kinase Detection Reagent was added to convert ADP to ATP within 30 min, and allow the newly synthesized ATP to produce a luminescence signal using luciferase/luciferin reaction, which was recorded by the luminescence panel of Microplate Reader (Enspire2300-001A, Perkin Elmer, Waltham, MA, USA).The luminescent signal is proportional to the ADP concentration produced and correlated with the kinase activity.

A549 cancer cells = experiment: CCK-8 cell proliferation assay, A549; assay type: cell-based; settings: Homo sapiens, A549, 48 h treatment, read-out: IC50, inhibition of A549 cell proliferation
Protocol: With the aim of investigating the anti-cancer cell proliferative activity of the CK2 inhibitors, compound 3 and 4 was tested against human cancer cell lines based on Cell Counting Kit-8 (CCK-8) assay. […] We presumed that the functional uracil group of two compounds, which is also presented in the anti-cancer hits 5-fluorouracil, is essential and indispensable for anti-cancer activity.
Cell Counting Kit-8 (CCK-8 Dojindo Laboratories, Kyushu, Japan) assays was used to assess the cytotoxic activities of compound 3 and 4. A549 and HeLa cancer cells were seeded in 96-well flat-bottom culture plate at 2 × 10^4 cells/well and then cultured in an incubator of 5% CO2 and 37 °C for 24 h. After cells adherence, the cells were treated with targeted compounds at various concentrations for 48 h. Blank wells (containing culture medium only) and negative wells (untreated cells) served as controls. Following, 10 μL CCK-8 solutions was add to each well and incubated for 2 h at 37 °C, the absorbance was measured at 450 nm by using a microplate reader (Enspire 2300-001A, Perkin Elmer, Waltham, MA, USA).

[1] = concentration-response, 10 μM ATP where stated, read-out: IC50 against CK2α

CK2α, sequence (P68400 whole entry): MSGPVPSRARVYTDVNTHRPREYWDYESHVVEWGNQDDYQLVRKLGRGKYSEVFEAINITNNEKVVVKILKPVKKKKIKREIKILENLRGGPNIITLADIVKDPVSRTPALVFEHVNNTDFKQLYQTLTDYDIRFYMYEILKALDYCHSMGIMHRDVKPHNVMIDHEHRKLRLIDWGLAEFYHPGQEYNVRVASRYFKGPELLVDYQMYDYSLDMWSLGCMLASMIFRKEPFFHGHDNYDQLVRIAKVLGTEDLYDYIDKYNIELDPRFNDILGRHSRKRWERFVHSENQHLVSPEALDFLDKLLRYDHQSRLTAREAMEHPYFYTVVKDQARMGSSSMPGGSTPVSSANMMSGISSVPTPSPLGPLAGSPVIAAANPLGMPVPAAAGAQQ

Row | SMILES | inhibition at 16 µM (CK2α; 16 μM compound) [%] | inhibition at 256 µM (CK2α) [%] | %Inhibition at 16 μM (CK2α; 16 μM compound, 16 µM) [%] | inhibition at 64 µM (CK2α; 64 μM compound) [%] | IC50 (CK2α; 100 μM ATP, read-out: IC50 against CK2α in the presence of 100 μM ATP) [µM] | mode of inhibition with respect to ATP (CK2α; IC50 compared at 10 μM and 100 μM ATP) | IC50 (CK2α; [1]) [µM] | IC50 (A549 cancer cells) [µM] | inhibition at 1024 µM (CK2α) [%]
1 | COc1ccc(C(=O)Nc2ccc(C(N)=O)cc2)cc1Br [Compound 1] | 14 | 27 |  |  |  |  |  |  | 
2 | COc1ccc(C(=O)Nc2ccc3[nH]c(=O)[nH]c3c2)cc1Br [Compound 2] | 16 | 19 |  |  |  |  |  |  | 
3 | Cc1ccc(C(=O)Nc2c[nH]c(=O)[nH]c2=O)cc1C [Compound 3] | ~50 | 72 | 52 | > 50 | 10.2 | non-ATP competitive | 13 | 23.1 | 
4 | O=C(Cc1cccc2ccccc12)Nc1c[nH]c(=O)[nH]c1=O [Compound 4] | 22 | 40 |  |  |  |  | ≤ 1020 | 8.8 | 
5 | Cc1c(Cl)cccc1NC(=O)CC1NCCNC1=O (stereo not shown) [Compound 5] | 16 | 29 |  |  |  |  |  |  | < 50
6 | Nc1cc(=O)nc(SCc2ccccc2Cl)[nH]1 [Compound 6] | 12 | 18 |  |  |  |  |  |  | < 50
